Measurements published in article PMC8124365 (International Journal of Molecular Sciences, 2021).
Where two headings read alike, the source gives them in different places.

What was measured:
LNCaP [1] = conditions: cited from earlier work; for Kidney Uptake / Tumour Uptake: BALB/c nu/nu (LNCaP), ref Kelly et al., 2018 [32]
LNCaP [2] = test system: LNCaP; set-up: method as in Benesova et al., 2015 [31]; conditions: BALB/c nu/nu (LNCaP), ref Benesova et al., 2015 [31], cited from earlier work
PC-3 PIP [3] = test system: PC-3 PIP; set-up: method as in Banerjee et al., 2019 [3]; conditions: 111 MBq; NOD-SCID gamma (PC-3 PIP); median survival; ref Banerjee et al., 2019 [3]; cited from earlier work
PC-3 PIP [4] = test system: PC-3 PIP; set-up: method as in Umbricht et al., 2018 [60]; conditions: Athymic nude BALB/c (PC-3 PIP), median survival, ref Umbricht et al., 2018 [60], cited from earlier work
LNCaP [5] = conditions: cited from earlier work; for Kidney Uptake / Tumour Uptake: NOD-SCID gamma (LNCaP), ref Kuo et al., 2018 [30]
tumour = test system: tumour; set-up: method as in Fendler et al. [36]; conditions: after 4 days; ref Fendler et al. [36]; cited from earlier work
RM1-PGLS [6] = test system: RM1-PGLS; set-up: method as in Fendler et al., 2017 [36]; conditions: C57BL/6 (RM1-PGLS), median survival, ref Fendler et al., 2017 [36], cited from earlier work
LNCaP [7] = test system: LNCaP; set-up: method as in Kuo et al., 2018 [30]; conditions: 18.5 MBq; NOD rag gamma (LNCaP); median survival; ref Kuo et al., 2018 [30]; cited from earlier work
PC-3 PIP [8] = test system: PC-3 PIP; set-up: method as in Benesova et al., 2018 [33]; conditions: Athymic nude BALB/c (PC-3 PIP), ref Benesova et al., 2018 [33], cited from earlier work
C4-2 xenografts = assay: Biodistribution of radioligand in mice with C4-2 xenografts; assay type: in vivo, Hsd:Athymic Nude-Foxn1^nu mice; conditions: free ^212Pb control
Excerpt: For the biodistribution and therapy studies, 105 male Hsd:Athymic Nude-Foxn1^nu mice bred at the Department of Comparative Medicine at the Norwegian Radium Hospital (Oslo University Hospital, Oslo, Norway) were used. For the toxicity study, 13 male BALB/cJRj mice from Janvier Labs (Le Genest-Saint-Isle, France) were used. The studies were approved by the Institutional Committee on Research Animal Care (Department of Comparative Medicine, Oslo University Hospital) and the Norwegian Food Safety Authority (Brumunddal, Norway, approval: FOTS ID 22197, 20/49651). All procedures and experiments involving animals in this study were performed in accordance with the Interdisciplinary Principles and Guidelines for the Use of Animals in Research, Marketing and Education (New York Academy of Sciences, New York, USA) and the EU Directive 2010/63/EU for animal experiments as well as the ARRIVE guidelines. The animals were maintained under specific pathogen-free conditions with ad libitum access to food and water. Cages (1–5 mice per cage) were housed in a scantainer, which was maintained at constant temperature (24 °C) and humidity (60%). The mice were around 4–6 weeks in age and weighed 25–35 g at the start of the study.
Mice were inoculated subcutaneously in both flanks with 10 × 10^6 C4-2 cells in supplement-free RPMI1640 medium mixed 1:1 with Matrigel Matrix (Corning, NY, USA) in a total volume of 200 µL. In one of the biodistribution experiments, mice were inoculated with 5 × 10^6 PC-3 cells (200 µL, 1:1 medium:Matrigel Matrix) as a negative control. The tumours were allowed to grow to reach a volume of 300–1500 mm^3 for the biodistribution studies and a volume of 30–300 mm^3 for the therapy studies, and tumour-bearing mice were randomised based on tumour size before radioligand injection. Mice were monitored 2–3 times per week for changes in body weight and tumour size and were euthanised by cervical dislocation if any of the following humane end points were reached: >20% weight loss from initial body weight, rapid weight loss (>10% within 2 days), tumours exceed 20 mm in any direction, ulcerate or interfere with normal behaviour, or any signs of severe sickness or discomfort.
At various time points after injection (from 15 min up to 48 h), organs/tissues were harvested, and radioligand uptake was calculated as a percentage of injected dose per gram tissue (%ID/g). Effective half-lives in selected organs were obtained by fitting monoexponential functions to the biodistribution data (Bq/g vs. time), normalised to 1 MBq/kg, (1) y(t)=a×e^−ln(2)×t/Teffective
The biological half-lives were then calculated by the following formula:(2) 1/Teffective=1/Tbiological+1/Tphysical

[9] = test system: subcutaneous tumour models; conditions: 0.02–0.1 MBq; ref [59],[61]; cited from earlier work
C4-2 = conditions: cited from earlier work; for TI: NOD-SCID gamma (C4-2), median survival, ref Stuparu et al., 2020 [59]; for Toxicity in treated mice: radiosensitive model, ref [59]
RM1-PGLS [10] = conditions: cited from earlier work

O=C([O-])CN1CCN(CC(=O)[O-])CCN(CC(=O)NCC2CCC(C(=O)N[C@@H](Cc3ccc4ccccc4c3)C(=O)NCCCC[C@H](NC(=O)N[C@@H](CCC(=O)O)C(=O)O)C(=O)O)CC2)CCN(CC(=O)[O-])CC1.[177Lu+3] (stereo partly drawn) [^177Lu-PSMA-617]
Kidney Uptake (LNCaP [1]; 4h): 14.1 ± 3.1 %ID/G
Tumour Uptake (LNCaP [1]; 4h): 14.4 ± 1.1 %ID/G
Kidney Uptake (LNCaP [1]; 24h): 0.7 ± 0.1 %ID/G
Tumour Uptake (LNCaP [1]; 24h): 4.6 ± 0.6 %ID/G
Tumour level (LNCaP [1]; after 4 days, ref Kelly et al. [32]): 3.5 %ID/g
Kidney Uptake (LNCaP [2]; 1h): 137.2 ± 77.8 %ID/G
Tumour Uptake (LNCaP [2]; 1h): 11.2 ± 4.2 %ID/G
Kidney Uptake (LNCaP [2]; 24h): 2.1 ± 1.4 %ID/G
Tumour Uptake (LNCaP [2]; 24h): 10.6 ± 4.5 %ID/G
TI (PC-3 PIP [3]): 3.9
TI (PC-3 PIP [4]; 2 MBq (2 MBq/nmol)): 1.1
TI (PC-3 PIP [4]; 5 MBq (5 MBq/nmol)): 1.8
Kidney Uptake (LNCaP [5]; 1h): 97.2 ± 19.4 %ID/G
Tumour Uptake (LNCaP [5]; 1h): 15.1 ± 5.6 %ID/G
Kidney Uptake (LNCaP [5]; 4h): 26.6 ± 19.1 %ID/G
Tumour Uptake (LNCaP [5]; 4h): 14.5 ± 1.8 %ID/G
Kidney Uptake (LNCaP [5]; 24h): 0.6 ± 0.2 %ID/G
Tumour Uptake (LNCaP [5]; 24h): 10.9 ± 3.3 %ID/G
Tumour level (LNCaP [5]; after 5 days, ref Kuo et al. [30]): 7 %ID/g
Tumour level (tumour): 0.7 %ID/g
TI (RM1-PGLS [6]; 30 MBq (62 MBq/nmol)): 1.4
TI (RM1-PGLS [6]; 60 MBq (62 MBq/nmol)): 1.9
TI (RM1-PGLS [6]; 120 MBq (62 MBq/nmol)): 1.9
TI (LNCaP [7]): 4.1
Kidney Uptake (PC-3 PIP [8]; 1h): 9.8 ± 1.4 %ID/G
Tumour Uptake (PC-3 PIP [8]; 1h): 44.2 ± 12.0 %ID/G
Kidney Uptake (PC-3 PIP [8]; 4h): 3.4 ± 3.2 %ID/G
Tumour Uptake (PC-3 PIP [8]; 4h): 56.0 ± 8.0 %ID/G
Kidney Uptake (PC-3 PIP [8]; 24h): 0.8 ± 0.9 %ID/G
Tumour Uptake (PC-3 PIP [8]; 24h): 37.3 ± 5.8 %ID/G

[212Pb+2] [^212Pb^2+]
Uptake in kidneys (C4-2 xenografts; 1–8 h post injection): 34.2–49.0 %ID/g
Uptake in liver (C4-2 xenografts; 1–8 h post injection): 8.3–9.1 %ID/g
Uptake in bones (C4-2 xenografts; at 1–4 h): 7.3–10.4 %ID/g
Uptake in bones (C4-2 xenografts; at 8 h): 1.0–2.6 %ID/g

O=C([O-])CC[C@H](NC(=O)N[C@@H](CCCCNC(=O)[C@H](Cc1ccc2ccccc2c1)NC(=O)[C@H]1CC[C@H](CNC(=O)CN2CCN(CC(=O)[O-])CCN(CC(=O)[O-])CCN(CC(=O)[O-])CC2)CC1)C(=O)[O-])C(=O)[O-].[225Ac].[H+].[H+].[H+] [^225Ac-PSMA-617]
Therapeutic Index Range [9]: 1.1–6.7
TI (C4-2; 0.02 MBq (0.13 MBq/nmol)): 3.6
Toxicity in treated mice (C4-2; 0.02 and 0.04 MBq): transient weight loss
TI (C4-2; 0.04 MBq (0.13 MBq/nmol)): 6.7
TI (C4-2; 0.10 MBq (0.13 MBq/nmol)): 4.2
Toxicity in treated mice (C4-2; 0.10 MBq): severe weight loss
TI (RM1-PGLS [10]; 0.03 MBq (0.13 MBq/nmol), Athymic nude mice (RM1-PGLS), median survival, ref Czernin et al., 2020 [61]): 1.1
Toxicity in treated mice (RM1-PGLS [10]; 0.03 MBq, more radioresistant model, ref [61]): no signs of toxicity
